Reference: patent publication US11000033B2, “Ketone or oxime compound, and herbicide” (NISSAN CHEMICAL CORPORATION, priority 2014, dated 2021)

How the values were obtained:
Assay type in all cases: in vivo
[1] = test system: Echinochloa oryzacola Vasing.; experiment: Test Example 1: herbicidal activity, application before weed generation in submerged conditions (symbol A); conditions: application herbicide amount 320 g/ha
Method in brief: (§1)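 Scores run 0 to 5 by herbicidal ratio, with 5 meaning 90% or more and 0 meaning 5% or lower, read 3 weeks after treatment. Compound was applied as a diluted emulsion to the water surface of submerged alluvial-soil pots on the day weed seeds were sown.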

Monochoria vaginalis [2] = experiment: Test Example 1: herbicidal activity, application before weed generation in submerged conditions (symbol C); conditions: application herbicide amount 320 g/ha
Method in brief: as §1

Monochoria vaginalis [3] = experiment: Test Example 2: herbicidal activity, application during weed generation in submerged conditions (symbol C); conditions: Table 23; application herbicide amount 320 g/ha; grade 0-5 by criteria of Test Example 1
Method in brief: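 Weeds emerging under flooded conditions were treated with compound formulated as an emulsion and diluted with water to the intended herbicide amount, poured onto the surface of 4 cm standing water. Seeds had been co-sown in alluvial soil; plants grew at 25° C. to 30° C. and were assessed after 3 weeks.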

Cyperus difformis = experiment: Test Example 3: herbicidal effect by foliage application, Wagner pot (symbol E); conditions: application herbicide amount 320 g/ha
Method in brief: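 Alluvial soil was flooded to a depth of 0.1–0.5 cm, seeded with the weeds and rice, and kept in a greenhouse at 25–30 °C. After 14 days of growth, the foliage received a small-sprayer application of emulsion diluted to the intended rate; injury was rated at 3 weeks.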

[4] = test system: directly sowed rice plant; experiment: Test Example 3: effect on crop by foliage application, Wagner pot (symbol b); conditions: application herbicide amount 320 g/ha
Method in brief: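 Greenhouse culture at 25–30 °C of seeded rice, Cyperus difformis, Leptochloa chinensis and Echinochloa crus-galli var. crus-galli, in alluvial soil held under 0.1–0.5 cm of water in a Wagner pot.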

Digitaria ciliaris = experiment: Test Example 4: herbicidal effect by soil treatment (symbol F); conditions: for F (Digitaria ciliaris) herbicidal effect grade: application herbicide amount 320 g/ha; for F: Digitaria ciliaris, herbicidal effect grade: 320 g/ha
Method in brief: (§2)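 Seeds were sown in sterilized diluvial soil, covered with about 1.5 cm of soil, and the soil surface was sprayed with a water-diluted emulsion of the compound at a predetermined rate. Plants grew in a greenhouse at 25° C. to 30° C.; effects were scored visually 3 weeks after application.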

Apera spica-venti = experiment: Test Example 4: herbicidal effect by soil treatment (symbol L); conditions: for L (Apera spica-venti) herbicidal effect grade: application herbicide amount 320 g/ha; for L: Apera spica-venti, herbicidal effect grade: 320 g/ha
Method in brief: as §2

Amaranthus retroflexus [5] = experiment: Test Example 4: herbicidal effect by soil treatment (symbol N); conditions: for N (Amaranthus retroflexus) herbicidal effect grade: application herbicide amount 320 g/ha; for N: Amaranthus retroflexus, herbicidal effect grade: 320 g/ha
Method in brief: as §2

rapeseed = experiment: Test Example 4: effect on crop by soil treatment (symbol g); conditions: for g (rapeseed) effect on crop grade: application herbicide amount 320 g/ha; for g: rapeseed, effect grade on crop: 320 g/ha
Method in brief: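 Steps: fill box with sterilized diluvial soil; sow seed spot-like; cover with ~1.5 cm soil; grow in greenhouse (25° C. to 30° C.).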

[6] = test system: Echinochloa crus-galli var. crus-galli; experiment: Test Example 5: herbicidal effect by foliage application, plastic box (symbol H); conditions: 320 g/ha, 3 weeks after application
Method in brief: (§3)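 After sowing into sterilized diluvial soil and growing two weeks under glass at 25° C. to 30° C., seedlings receive a uniform foliar spray of diluted emulsion. Damage is judged visually three weeks on.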

Avena fatua = experiment: Test Example 5: herbicidal effect by foliage application, plastic box (symbol I); conditions: 320 g/ha, 3 weeks after application
Method in brief: as §3

Alopecurus myosuroides = experiment: Test Example 5: herbicidal effect by foliage application, plastic box (symbol J); conditions: 320 g/ha, 3 weeks after application
Method in brief: as §3

Amaranthus retroflexus [7] = experiment: Test Example 5: herbicidal effect by foliage application, plastic box (symbol N); conditions: 320 g/ha, 3 weeks after application
Method in brief: as §3

Galium spurium = experiment: Test Example 5: herbicidal effect by foliage application, plastic box (symbol Q); conditions: 320 g/ha, 3 weeks after application
Method in brief: as §3

CCCCCCCON=C(C)CC1CC(O)=C(c2c(C)cc(C)cc2C)C1=O (stereo not shown) [1-054]
Herbicidal effect grade, A: Echinochloa oryzacola Vasing. [1]: 5 (Herbicidal ratio of 90% or more (almost completely withered)) | Herbicidal effect grade, C: Monochoria vaginalis (Monochoria vaginalis [2]): 0 (Herbicidal ratio of 5% or lower (almost no effect)) | Herbicidal effect grade, C: Monochoria vaginalis (Monochoria vaginalis [3]): 0 (Herbicidal ratio of 5% or lower (almost no effect)) | herbicidal effect on E, grade 0-5 (Cyperus difformis): 0 (Herbicidal ratio of 5% or lower (almost no effect)) | effect on crop b (directly sowed rice plant), grade 0-5 [4]: 5 (Herbicidal ratio of 90% or more (almost completely withered)) | F (Digitaria ciliaris) herbicidal effect grade (Digitaria ciliaris): 5 (Herbicidal ratio of 90% or more (almost completely withered)) | L (Apera spica-venti) herbicidal effect grade (Apera spica-venti): 1 (Herbicidal ratio of 5% or higher and lower than 20%) | N (Amaranthus retroflexus) herbicidal effect grade (Amaranthus retroflexus [5]): 0 (Herbicidal ratio of 5% or lower (almost no effect)) | g (rapeseed) effect on crop grade (rapeseed): 1 (Herbicidal ratio of 5% or higher and lower than 20%) | H: Echinochloa crus-galli var. crus-galli, herbicidal effect grade [6]: 4 (Herbicidal ratio of 70% or higher and lower than 90%) | I: Avena fatua, herbicidal effect grade (Avena fatua): 3 (Herbicidal ratio of 40% or higher and lower than 70%) | J: Alopecurus myosuroides, herbicidal effect grade (Alopecurus myosuroides): 4 (Herbicidal ratio of 70% or higher and lower than 90%) | N: Amaranthus retroflexus, herbicidal effect grade (Amaranthus retroflexus [7]): 0 (Herbicidal ratio of 5% or lower (almost no effect)) | Q: Galium spurium, herbicidal effect grade (Galium spurium): 0 (Herbicidal ratio of 5% or lower (almost no effect))

CON=C(C)CC1CC(OC(=O)COc2ccc3ccccc3c2)=C(c2c(C)cc(C)cc2C)C1=O (stereo not shown) [1-083]
Herbicidal effect grade, A: Echinochloa oryzacola Vasing. [1]: 5 (Herbicidal ratio of 90% or more (almost completely withered)) | Herbicidal effect grade, C: Monochoria vaginalis (Monochoria vaginalis [2]): 1 (Herbicidal ratio of 5% or higher and lower than 20%) | Herbicidal effect grade, C: Monochoria vaginalis (Monochoria vaginalis [3]): 3 (Herbicidal ratio of 40% or higher and lower than 70%) | herbicidal effect on E, grade 0-5 (Cyperus difformis): 5 (Herbicidal ratio of 90% or more (almost completely withered)) | effect on crop b (directly sowed rice plant), grade 0-5 [4]: 3 (Herbicidal ratio of 40% or higher and lower than 70%) | F: Digitaria ciliaris, herbicidal effect grade (Digitaria ciliaris): 5 (Herbicidal ratio of 90% or more (almost completely withered)) | L: Apera spica-venti, herbicidal effect grade (Apera spica-venti): 5 (Herbicidal ratio of 90% or more (almost completely withered)) | N: Amaranthus retroflexus, herbicidal effect grade (Amaranthus retroflexus [5]): 5 (Herbicidal ratio of 90% or more (almost completely withered)) | g: rapeseed, effect grade on crop (rapeseed): 4 (Herbicidal ratio of 70% or higher and lower than 90%) | H: Echinochloa crus-galli var. crus-galli, herbicidal effect (criteria 0-5) [6]: 5 (Herbicidal ratio of 90% or more (almost completely withered)) | I: Avena fatua, herbicidal effect (criteria 0-5) (Avena fatua): 5 (Herbicidal ratio of 90% or more (almost completely withered)) | J: Alopecurus myosuroides, herbicidal effect (criteria 0-5) (Alopecurus myosuroides): 5 (Herbicidal ratio of 90% or more (almost completely withered)) | N: Amaranthus retroflexus, herbicidal effect (criteria 0-5) (Amaranthus retroflexus [7]): 4 (Herbicidal ratio of 70% or higher and lower than 90%) | Q: Galium spurium, herbicidal effect (criteria 0-5) (Galium spurium): 0 (Herbicidal ratio of 5% or lower (almost no effect))

COCCOC1=C(c2c(C)cc(C)cc2C)C(=O)C(CC(C)=NOC)C1 (stereo not shown) [1-037]
Herbicidal effect grade, A: Echinochloa oryzacola Vasing. [1]: 0 (Herbicidal ratio of 5% or lower (almost no effect)) | Herbicidal effect grade, C: Monochoria vaginalis (Monochoria vaginalis [2]): 0 (Herbicidal ratio of 5% or lower (almost no effect)) | Herbicidal effect grade, C: Monochoria vaginalis (Monochoria vaginalis [3]): 0 (Herbicidal ratio of 5% or lower (almost no effect)) | herbicidal effect on E, grade 0-5 (Cyperus difformis): 0 (Herbicidal ratio of 5% or lower (almost no effect)) | effect on crop b (directly sowed rice plant), grade 0-5 [4]: 0 (Herbicidal ratio of 5% or lower (almost no effect)) | F (Digitaria ciliaris) herbicidal effect grade (Digitaria ciliaris): 0 (Herbicidal ratio of 5% or lower (almost no effect)) | L (Apera spica-venti) herbicidal effect grade (Apera spica-venti): 0 (Herbicidal ratio of 5% or lower (almost no effect)) | N (Amaranthus retroflexus) herbicidal effect grade (Amaranthus retroflexus [5]): 0 (Herbicidal ratio of 5% or lower (almost no effect)) | g (rapeseed) effect on crop grade (rapeseed): 0 (Herbicidal ratio of 5% or lower (almost no effect)) | H: Echinochloa crus-galli var. crus-galli, herbicidal effect grade [6]: 0 (Herbicidal ratio of 5% or lower (almost no effect)) | I: Avena fatua, herbicidal effect grade (Avena fatua): 0 (Herbicidal ratio of 5% or lower (almost no effect)) | J: Alopecurus myosuroides, herbicidal effect grade (Alopecurus myosuroides): 0 (Herbicidal ratio of 5% or lower (almost no effect)) | N: Amaranthus retroflexus, herbicidal effect grade (Amaranthus retroflexus [7]): 0 (Herbicidal ratio of 5% or lower (almost no effect)) | Q: Galium spurium, herbicidal effect grade (Galium spurium): 0 (Herbicidal ratio of 5% or lower (almost no effect))

CCCC=CC(=O)OC1=C(c2c(C)cc(C)cc2C)C(=O)C(CC(C)=NOC)C1 (stereo not shown) [1-090]
Herbicidal effect grade, A: Echinochloa oryzacola Vasing. [1]: 5 (Herbicidal ratio of 90% or more (almost completely withered)) | Herbicidal effect grade, C: Monochoria vaginalis (Monochoria vaginalis [2]): 1 (Herbicidal ratio of 5% or higher and lower than 20%) | Herbicidal effect grade, C: Monochoria vaginalis (Monochoria vaginalis [3]): 3 (Herbicidal ratio of 40% or higher and lower than 70%) | herbicidal effect on E, grade 0-5 (Cyperus difformis): 5 (Herbicidal ratio of 90% or more (almost completely withered)) | effect on crop b (directly sowed rice plant), grade 0-5 [4]: 5 (Herbicidal ratio of 90% or more (almost completely withered)) | F: Digitaria ciliaris, herbicidal effect grade (Digitaria ciliaris): 5 (Herbicidal ratio of 90% or more (almost completely withered)) | L: Apera spica-venti, herbicidal effect grade (Apera spica-venti): 5 (Herbicidal ratio of 90% or more (almost completely withered)) | N: Amaranthus retroflexus, herbicidal effect grade (Amaranthus retroflexus [5]): 0 (Herbicidal ratio of 5% or lower (almost no effect)) | g: rapeseed, effect grade on crop (rapeseed): 4 (Herbicidal ratio of 70% or higher and lower than 90%) | H: Echinochloa crus-galli var. crus-galli, herbicidal effect (criteria 0-5) [6]: 5 (Herbicidal ratio of 90% or more (almost completely withered)) | I: Avena fatua, herbicidal effect (criteria 0-5) (Avena fatua): 5 (Herbicidal ratio of 90% or more (almost completely withered)) | J: Alopecurus myosuroides, herbicidal effect (criteria 0-5) (Alopecurus myosuroides): 5 (Herbicidal ratio of 90% or more (almost completely withered)) | N: Amaranthus retroflexus, herbicidal effect (criteria 0-5) (Amaranthus retroflexus [7]): 1 (Herbicidal ratio of 5% or higher and lower than 20%) | Q: Galium spurium, herbicidal effect (criteria 0-5) (Galium spurium): 0 (Herbicidal ratio of 5% or lower (almost no effect))

CON=C(C)CC1CC(OC(=O)C2=CCCC2)=C(c2c(C)cc(C)cc2C)C1=O (stereo not shown) [1-088]
Herbicidal effect grade, A: Echinochloa oryzacola Vasing. [1]: 5 (Herbicidal ratio of 90% or more (almost completely withered)) | Herbicidal effect grade, C: Monochoria vaginalis (Monochoria vaginalis [2]): 0 (Herbicidal ratio of 5% or lower (almost no effect)) | Herbicidal effect grade, C: Monochoria vaginalis (Monochoria vaginalis [3]): 3 (Herbicidal ratio of 40% or higher and lower than 70%) | herbicidal effect on E, grade 0-5 (Cyperus difformis): 5 (Herbicidal ratio of 90% or more (almost completely withered)) | effect on crop b (directly sowed rice plant), grade 0-5 [4]: 5 (Herbicidal ratio of 90% or more (almost completely withered)) | F: Digitaria ciliaris, herbicidal effect grade (Digitaria ciliaris): 5 (Herbicidal ratio of 90% or more (almost completely withered)) | L: Apera spica-venti, herbicidal effect grade (Apera spica-venti): 5 (Herbicidal ratio of 90% or more (almost completely withered)) | N: Amaranthus retroflexus, herbicidal effect grade (Amaranthus retroflexus [5]): 1 (Herbicidal ratio of 5% or higher and lower than 20%) | g: rapeseed, effect grade on crop (rapeseed): 4 (Herbicidal ratio of 70% or higher and lower than 90%) | H: Echinochloa crus-galli var. crus-galli, herbicidal effect (criteria 0-5) [6]: 5 (Herbicidal ratio of 90% or more (almost completely withered)) | I: Avena fatua, herbicidal effect (criteria 0-5) (Avena fatua): 5 (Herbicidal ratio of 90% or more (almost completely withered)) | J: Alopecurus myosuroides, herbicidal effect (criteria 0-5) (Alopecurus myosuroides): 5 (Herbicidal ratio of 90% or more (almost completely withered)) | N: Amaranthus retroflexus, herbicidal effect (criteria 0-5) (Amaranthus retroflexus [7]): 1 (Herbicidal ratio of 5% or higher and lower than 20%) | Q: Galium spurium, herbicidal effect (criteria 0-5) (Galium spurium): 0 (Herbicidal ratio of 5% or lower (almost no effect))
